Results taken from patent US5160526A, “Alkene stabilizers for 3-isothiazolone compounds” (priority 1991, dated 1992).

Format: physicochemical
Conditions: 2-propanol/water systems

Row | Compound | stabilizing properties (in words)
1 | C1=Cc2ccccc2C1 [indene] | failed to show any stabilizing properties
2 | C1=CC2C3C=CC(C3)C2C1 (centres unmarked) [dicylopentadiene] | failed to show any stabilizing properties
